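48-hour exposure; five concentrations; linearly interpolated endpoints. TGI is the concentration that stops growth completely.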
How the values were obtained:
Experiment in all cases: DTP human tumour cell line panel, 48 h
SK-MEL-28 melanoma = system: SK-MEL-28 melanoma
RPMI-8226 leukemia = system: RPMI-8226 leukemia
U251 CNS = system: U251 CNS
MOLT-4 leukemia = system: MOLT-4 leukemia
HCT-15 colon = system: HCT-15 colon
PC-3 prostate = system: PC-3 prostate
TK-10 renal = system: TK-10 renal
SK-OV-3 ovarian = system: SK-OV-3 ovarian
NCI/ADR-RES ovarian = system: NCI/ADR-RES ovarian
NCI-H460 lung = system: NCI-H460 lung

SMILES | TGI (SK-MEL-28 melanoma) [µM] | TGI (RPMI-8226 leukemia) [µM] | TGI (U251 CNS) [µM] | TGI (MOLT-4 leukemia) [µM] | TGI (HCT-15 colon) [µM] | TGI (PC-3 prostate) [µM] | TGI (TK-10 renal) [µM] | TGI (SK-OV-3 ovarian) [µM] | TGI (NCI/ADR-RES ovarian) [µM] | TGI (NCI-H460 lung) [µM]
CC(=O)Oc1c(OC(C)C)cc(=O)n2ccsc12 | > 100 | > 100 | > 100 | > 100 | > 100 | > 100 | > 100 | > 100 | > 100 | > 100
COc1ccc(NC(=S)Nc2cccc(C)n2)cc1 | > 100 | > 100 | > 100 | > 100 | > 100 | > 100 | > 100 | > 100 | > 100 | > 100
O=C(Cn1c(-c2ccccc2)cc2ccccc21)N1CCOCC1 | > 100 | > 100 | > 100 | > 100 | > 100 | > 100 | > 100 | > 100 | > 100 | > 100
CCOC(=O)c1sc2nc(SC)nc3c2c1NCN3c1ccccc1Cl | > 100 | > 100 | > 100 | > 100 | > 100 | > 100 | > 100 | > 100 | > 100 | > 100
O=C1C[C@@]23CCC4(CC2=CCC[C@H]3O1)OCCO4 | > 100 | > 100 | > 100 | > 100 | > 100 | > 100 | > 100 | > 100 | > 100 | > 100
O=C(CCc1ccccc1)NCCc1ccc(O)c(O)c1 | > 100 | 59.4 | > 100 | > 89.4 | > 100 | > 61.2 | > 100 | > 100 | > 100 | > 100
CC(=O)CC(=O)N1CCOC1=O | > 10 | > 10 | > 10 | > 10 | > 10 | > 10 | > 10 | > 10 | > 10 | > 10
Nc1nc2c(c(-c3ccc(F)cc3)n1)COC/C2=C\c1ccc(F)cc1 | > 100 | > 100 | 31 | > 100 | > 100 | > 100 | > 100 | > 100 | > 100 | 34
C[C@@H](c1ccccc1)N(CC#N)[C@H]1CCC[C@]1(O)/C=C/c1ccc2c(c1)OCO2 | > 25 | > 25 | > 25 | > 25 | > 25 | > 25 | > 25 | > 25 | > 25 | > 25
CC(C)S1=C2C(=O)CC(C)(C)CC2=Nc2ccccc21 (stereo not given) | > 100 | > 100 | > 100 | > 100 | > 100 | > 100 | > 100 | > 100 | > 100 | > 100
CCCSC1=N/C(=C\c2ccco2)C(=O)N1 | > 100 | > 100 | > 100 | > 100 | > 100 | > 100 | > 100 | > 100 | > 100 | > 100
CN1Cc2c(ccc3c2OCO3)[C@@H]2[C@H](O)Cc3cc4c(cc3[C@@H]21)OCO4 | > 100 | > 37.4 | > 25.1 | > 57.1 | 6.74 | > 100 | > 100 | > 29.9 | > 100 | > 100
COc1cc(CC2C(=O)OCC2Cc2ccc(OC)c(OC)c2)ccc1O (stereo not given) | > 100 | > 100 | > 100 | > 31.7 | > 100 | > 100 | > 100 | > 100 | > 100 | > 100

Reference: PubChem BioAssay (NCI)
